Converted amounts (≈) assume the structure as drawn.
Legend:
[1] = system: human liver carcinoma (HEPG2) cells; assay: SRB cytotoxic assay, HEPG2; assay type: cell-based; settings: single dose 100 µg/mL, 48 h, read-out: %Inhibition at100 µg/mL HEPG2
Procedure: (§1) All the prepared compounds were screened at a concentration of 100 µg/mL against six different human cell lines: human laryngeal carcinoma (HEP2), human colorectal carcinoma (HCT116), human breast carcinoma (MCF7), human Lung carcinoma (A549), human liver carcinoma (HEPG2), and normal African Green monkey kidney cell line (VERO). Doxorubicin was used as a positive control for comparison purposes.
(§2) The human laryngeal carcinoma (HEP2), colorectal carcinoma (HCT116), breast carcinoma (MCF7), Lung carcinoma (A549), liver carcinoma (HEPG2), and normal African Green monkey kidney cell line (VERO) were purchased from American Tissue Culture Collection (Rockville, MD, USA). The cells were treated for 48 h with a single dose (100 µg/mL) of all the tested chalcones. […] In brief, the cells were seeded in a 96-well microtiter plate at a concentration of 5×10^3 cells/well in 100 µL fresh RPMI-1640 medium and left to attach to the plates for 24 h. Then, cells were incubated with 100 μL of different concentrations (50, 25, 12.5, 6.25, and 0.0 µg/mL) of 5c in triplicate at 37 °C for 48 h. After that, the cells were fixed with 10 µL cold 100% Trichloroacetic acid (TCA) for 1h at 4 °C. The wells were then washed 1 time with distilled water using (automatic Tecan washer, Germany) and stained for 30 min at room temperature with 50 µL 0.4% SRB dissolved in 1% acetic acid. The plates were air-dried and the dye was solubilized with 100 µl/well of 1M tris base (pH 10.5) for 5 min. The optical density (O.D.) of each well was measured spectrophotometrically at 570 nm with an ELISA microplate reader (Sunrise Tecan reader, Germany) with automatic shaking for 30 seconds before reading. The mean background absorbance was subtracted automatically and mean values for each drug concentration were calculated. The percentage of cell survival was calculated as follows: Survival fraction= O.D. (treated cells)/ O.D. (control cells) (Bhat et al. [2023]).

[2] = system: COX-2 gene; assay: Real-time PCR, COX-2 gene expression; assay type: cell-based, human; settings: relative to untreated control (1)
Procedure: (§3) The expression level of the following six genes (Ki-67, Survivin, Interleukin-1 beta (IL-1B), Interleukin-6 (IL-6), Cyclooxygenase-2 (COX-2) and protein kinase B (AKT1)) was determined in MCF7 and HEP2 treated with the IC50 of compound 5c. The untreated cells were used as a negative control for comparison purposes. […] Ki-67 is a popular proliferation marker for human tumor cells. […] Survivin is an inhibitor of apoptotic protein (IAP) family member, which is essential for cell division. The lowering of the expression of survivin inhibited tumor development, triggered apoptosis, and made tumor cells more susceptible to radiation and chemotherapy (Albadari and Li [2023]). […] IL-1B is a pleiotropic mediator of inflammation, which is produced in response to a variety of stressors (Aarreberg et al. [2019]). […] IL-6 is a pro-inflammatory cytokine that plays a significant role in the proliferation and differentiation of human cells. It promotes the production of numerous proteins involved in acute inflammation (Uciechowski and Dempke [2020]). […]
(§4) The expression level of the following six genes (Ki-67, survivin, AKT1, IL-6, COX2, and IL-1B) was examined using real-time polymerase chain reaction (qPCR) (Mohamed et al. [2023a]). […] The cycle threshold (Ct) was determined automatically. […]

[3] = system: human laryngeal carcinoma (HEP2) cells; assay: SRB cytotoxic assay, HEP2; assay type: cell-based; settings: HEp-2, 48 h
Procedure: as §1, §2

[4] = system: human Lung carcinoma (A549) cells; assay: SRB cytotoxic assay, A549; assay type: cell-based; settings: single dose 100 µg/mL, 48 h, read-out: %Inhibition at100 µg/mL A549
Procedure: as §1, §2

[5] = system: normal African Green monkey kidney cell line (VERO); assay: SRB cytotoxic assay, VERO normal cells; assay type: cell-based; settings: Chlorocebus sabaeus, single dose 100 µg/mL, 48 h, read-out: %Inhibition at100 µg/mL VERO
Procedure: as §1, §2

[6] = system: IL-6 gene; assay: Real-time PCR, IL-6 gene expression; assay type: cell-based, human; settings: relative to untreated control (1)
Procedure: as §3, §4

[7] = HEP2 cells treated with IC50 of 5c
[8] = MCF7 cells treated with IC50 of 5c

SMILES: COc1ccc(NC(=O)COc2ccc(C=CC(=O)c3cccs3)cc2)cc1 [Compound 5c, N-(4-Methoxyphenyl)-2-(4-(3-oxo-3-(thiophen-2-yl)prop-1-en-1-yl)phenoxy)acetamide]
- inhibition at 100 µg/mL [1]: 67 ± 1.6%
- COX2 expression folding [2, 7]: 0.547±0.0321 fold
- COX2 expression folding [2, 8]: 0.502±0.073 fold
- IC50 [3]: 12 µg/mL (≈ 30.5 µM)
- inhibition at 100 µg/mL ([3]; single dose 100 µg/mL, read-out: %Inhibition at100 µg/mL HEP2): > 75%
- inhibition at 100 µg/mL [4]: 65 ± 2.1%
- inhibition at 100 µg/mL [5]: 58 ± 1.5%
- IL-6 expression folding [6, 7]: 0.464±0.08 fold
- IL-6 expression folding [6, 8]: 0.814±0.079 fold
